Results: patent EP0062319A1, “3-Methyl-1-(2-(3-naphthyloxy)-ethyl)-2-pyrazolin-5-one for the treatment of the metastasis and growth of tumour cells” (BAYER AG, priority 1981, dated 1982)

How the values were obtained:
B-16a-Zellen = test: DNA synthesis by 3H-thymidine uptake in B-16a cells in vitro; type: cell-based, Mäuse; conditions: 0,1, 1,0, 10 and 25 µg/ml, 4 h and 18 h, Fig. 1, relative to control = 100 %
Description: Die antineoplastische Wirksamkeit wurde in vitro durch Messung der DNS-Synthese sowohl von B-16a- als auch von Lewis-Lungenkarzinom-Zellen durch eine Methode gemessen, der die Thymidin-Aufnahme zugrundeliegt. Zellen, die in Vorbereitung der Zellteilung DNS synthetisieren, sind durch ihre Fähigkeit gekennzeichnet, Thymidin aufzunehmen. Demnach ist die Zell-Proliferation mit der DNS-Synthese verbunden. Wenn die Menge der durch die Tumorzellen synthetisierten DNS vermindert wird, so ist das ein Anzeichen dafür, daß die Zellteilung und damit das Tumorwachstum gehemmt worden ist.
B-16a- und Lewis-Lungenkarzinom-Zellen wurden wie vor- stehend beschrieben erhalten. Die dispergierten Zellen wurden in sterilen 25 ml-Erlenmeyer-Kolben aus Kunststoff auf eine Konzentration von 1 x 10^5 Zellen/ml in MEM verdünnt. Tritium-markiertes Thymidin (^3H) mit einer spezifischen Aktivität von […] (50-80 Ci/mmol) wurde mit […] (2 µCi/ml) zu jedem ml der Zellsuspension hinzugefügt.
Zu einer Reihe von Kolben, die die B-16 - und Lewis-Lungenkarzinom-Zellen enthielten, wurde die Pyrazolon-Verbindung in Mengen von 0,1 , 1,0 , 10 und 25 µg/ml des Gesamtvolumens hinzugefügt. […]

Lewis-Lungen-Karzinom = test: Tumour incidence and final tumour weight of subcutaneous Lewis lung carcinoma in mice; type: in vivo, C57BL/6J Mäuse; conditions: killed day 22; for Gewicht: final tumour weight
Description: Die antineoplastische Wirksamkeit wurde außerdem durch direkte Messung des Wachstums der Tumorzellen in vitro in Gewebekulturen bestimmt. Diese Methode bedient sich des "Plating" oder Aufimpfens einer bekannten Anzahl von Tumorzellen auf ein Wachstumsmedium und der Bestimmung der Wirkung der Anwesenheit der zu prüfenden Verbindung auf die Tumorzellen-Proliferation. Schließlich wurde die antineoplastische Aktivität in vivo in der Weise bestimmt, daß den Mäusen subkutan Tumorzellen injiziert wurden und das Auftreten von Tumorzellenwachstum sowie das Gewicht der wachsenden Tumorzellen in unbehandelten Kontrolltieren und in mit der Pyrazolon-Verbindung behandelten Tieren bestimmt wurden.
3 mg 3-Methyl-1-[2-(2-naphthyloxy)-ethyl]-2-pyrazolin-5-on wurden in 0,6 ml Ethylalkohol gelöst, und die Lösung wurde mit konzentrierter Natronlauge auf einen pH von 9,5 eingestellt.
Syngeneischen C57BL/6J Wirts-Mäusen wurden 1 x 10^5 Lewis-Lungenkarzinom-Zellen (0,2 ml) subkutan in die Achselhöhlenregion injiziert. Nach einem Zeitraum von 24 Stunden wurde die Pyrazolon-Verbindung 21 Tage lang täglich verabreicht. Die Wirkung der Verabreichung von Theophyllin zusammen mit der Pyrazolon-Verbindung wurde ebenfalls untersucht. Während des Zeitraums wurden die Mäuse unter identischen Bedingungen der Temperatur, Lichteinwirkungsdauer, Ernährung etc. gehalten. Die Mäuse wurden 22 Tage nach der Injektion der Tumorzellen getötet und mittels einer Gesamt-Nekropsie auf die Anwesenheit subkutaner Tumoren untersucht. Vorhandene Tumoren wurden entfernt und auf einer Analysenwaage gewogen.

CC1=NN(CCOc2ccc3ccccc3c2)C(=O)C1 [3-Methyl-1-[2-(2-naphthyloxy)-ethyl]-2-pyrazolin-5-on]
DNS-Synthese (3H-Thymidinaufnahme) (B-16a-Zellen): konzentrationsabhängige Abnahme der DNS-Synthese | Tumor-Häufigkeit Anzahl (Lewis-Lungen-Karzinom; 0.01 mg daily s.c. for 21 days from 24 h after 10^5 3LL cells s.c.): 3/12 | Tumor-Häufigkeit % (Lewis-Lungen-Karzinom; 0.01 mg daily s.c. for 21 days): 25% | Tumor-Häufigkeit % (Lewis-Lungen-Karzinom; 0.02 mg daily s.c. for 21 days): 33% | Tumor-Häufigkeit Anzahl (Lewis-Lungen-Karzinom; 0.02 mg daily s.c. for 21 days): 4/12 | Tumor-Häufigkeit % (Lewis-Lungen-Karzinom; 0.08 mg daily s.c. for 21 days): 8% | Tumor-Häufigkeit Anzahl (Lewis-Lungen-Karzinom; 0.08 mg daily s.c. for 21 days): 1/12 | Gewicht (Lewis-Lungen-Karzinom; 0.01 mg daily s.c. for 21 days): 0.74 ± 0.46 mg | Gewicht (Lewis-Lungen-Karzinom; 0.02 mg daily s.c. for 21 days): 0.49 ± 0.27 mg | Gewicht (Lewis-Lungen-Karzinom; 0.08 mg daily s.c. for 21 days): 0.16 mg
